Consider 18 compounds from paper PMC9781020, “Anti-Mycobacterial N-(2-Arylethyl)quinolin-3-amines Inspired by Marine Sponge-Derived Alkaloid” (Molecules, 2022).

≈ marks a conversion by molar mass, not a printed value. Read-outs that look alike come from different tables or passages of the source.

The subject of data set [1] is M. bovis BCG. Put plainly: microbe, parasite or virus in culture. It counts as cell-based, Mycobacterium bovis BCG Pasteur. Conditions: for MIC: Mycobacterium tuberculosis variant bovis BCG, BCG; for anti-mycobacterial activity (in words): M. bovis BCG.
The nature of data set [2]: Cytotoxicity against HUVECs (WST-8). It counts as cell-based, human. As to conditions: human, HUVECs (human umbilical vein endothelial cells), 72 h. The method, then:
(§1) HUVECs (5 × 10^5 cells/vial) was purchased from Kurabo Inc. and grown in HuMedia-EG2 medium with growth supplements (Kurabo Inc., Osaka, Japan). HUVECs in the culture medium was plated into each well of 96-well plates (2 × 10^3 cells/well/100 µL). After 24 h, the serially diluted compounds, which were dissolved in the medium containing no more than 0.5% EtOH, were added, and then the plates were incubated for an additional 72 h in a humidified atmosphere of 5% CO2 at 37 °C. The cell proliferation was detected by WST-8 colorimetric reagent (Nacalai Tesque, Inc., Kyoto, Japan). The IC50 value was determined by linear interpolation from the growth inhibition curve.
In general terms: Tetrazolium dyes change colour on reduction, which living cells bring about.

Data set [3] has as its system HUVECs. Put plainly: Cytotoxicity against HUVECs (WST-8). It counts as cell-based, human. The method, then: as §1

On to `COC1=Cc2ccnc3c(NCCc4ccccc4)cnc(c23)C1=O` [Compound 1, 3-(phenethylamino)demethyl(oxy)aaptamine, reference compound], for which the MIC was 1.56 µM (≈ 0.517 µg/mL) in data set [1] (168 h, read-out: MIC (Aerobic)) and 1.56 µM (≈ 0.517 µg/mL) in data set [1] (336 h, read-out: MIC (Hypoxic)). For the same compound, it took 1.36 µM to reach half-maximal inhibition in data set [2] (IC50 at 72 h).

Turning to `COc1cc2ccnc(C(=O)NCCc3ccccc3)c2cc1OC` [Compound 5, 6,7-Dimethoxy-N-phenethylisoquinoline-1-carboxamide], the “anti-mycobacterial activity (in words)” value in data set [1] was “weak anti-mycobacterial activity”. The MIC in data set [1] (168 h, read-out: MIC (Aerobic)) was found to be 100 µM (≈ 33.6 µg/mL); in data set [1] (336 h, read-out: MIC (Hypoxic)) it was 200 µM (≈ 67.3 µg/mL). It took 11.9 µM to reach half-maximal inhibition in data set [2] (IC50 at 72 h).

Consider `c1ccc(CCNc2cnc3ccccc3c2)cc1` [Compound 6, N-Phenethylquinolin-3-amine], for which the MIC in data set [1] (168 h, read-out: MIC (Aerobic)) stood at 6.25 µM (≈ 1.55 µg/mL); in data set [1] (336 h, read-out: MIC (Hypoxic)) it was 50 µM (≈ 12.4 µg/mL). In data set [2], half-maximal inhibition (IC50 at 72 h) required 18 µM.

As for `c1ccc(CCNc2cncc3cccnc23)cc1` [Compound 7, N-Phenethyl-1,6-naphthyridin-8-amine], the “anti-mycobacterial activity (in words)” value in data set [1] is on record as “weak anti-mycobacterial activity”. The MIC in data set [1] (168 h, read-out: MIC (Aerobic)) was 100 µM (≈ 24.9 µg/mL); in data set [1] (336 h, read-out: MIC (Hypoxic)), 50 µM (≈ 12.5 µg/mL). Moreover, in data set [2], the IC50 (as a rule, the concentration at which inhibition is half-maximal) at 72 h was determined as 8.1 µM.

Regarding `c1ccc(CCNc2cccnc2)cc1` [Compound 8, N-Phenethylpyridin-3-amine], the “anti-mycobacterial activity (in words)” value in data set [1] was “weak anti-mycobacterial activity”. The MIC in data set [1] (168 h, read-out: MIC (Aerobic)) came out at 200 µM (≈ 39.7 µg/mL); in data set [1] (336 h, read-out: MIC (Hypoxic)) it was 200 µM (≈ 39.7 µg/mL). Moreover, in data set [2], the concentration for half-maximal inhibition (IC50) at 72 h was greater than 100 µM.

Turning to `O=C1C=CC(=O)c2ncc(NCCc3ccccc3)cc21` [Compound 25, 3-(Phenethylamino)quinoline-5,8-dione], the “anti-mycobacterial activity (in words)” value in data set [1] was “weakened anti-mycobacterial activity”. Also, the MIC is 100 µM (≈ 27.8 µg/mL) in data set [1] (168 h, read-out: MIC (Aerobic)) and greater than 200 µM in data set [1] (336 h, read-out: MIC (Hypoxic)). Further, the IC50 at 72 h in data set [2] is less than 1 µM. Also, in data set [3], the “cytotoxicity (in words)” value was “enhanced cytotoxicity”.

Turning to `COC1=CC(=O)c2cc(NCCc3ccccc3)cnc2C1=O` [Compound 32, 7-Methoxy-3-(phenethylamino)quinoline-5,8-dione], in data set [1], the “anti-mycobacterial activity (in words)” value is reported as “weakened anti-mycobacterial activity”. For the same compound, the MIC in data set [1] (168 h, read-out: MIC (Aerobic)) is 25 µM (≈ 7.71 µg/mL); in data set [1] (336 h, read-out: MIC (Hypoxic)) it was 50 µM (≈ 15.4 µg/mL). The same compound showed an IC50 at 72 h in data set [2] of less than 1 µM. The “cytotoxicity (in words)” value in data set [3] is reported as “enhanced cytotoxicity”.

`O=c1c(NCCc2ccccc2)c[nH]c2ccccc12` [Compound 35, 3-(Phenethylamino)quinolin-4(1H)-one]: in data set [1], the “anti-mycobacterial activity (in words)” value is on record as “no anti-mycobacterial or cytotoxic activity”. Besides, the MIC in data set [1] (168 h, read-out: MIC (Aerobic)) is greater than 200 µM; in data set [1] (336 h, read-out: MIC (Hypoxic)), greater than 200 µM. In addition, the half-inhibitory concentration (IC50) at 72 h in data set [2] was greater than 100 µM. The “cytotoxicity (in words)” value in data set [3] is “no anti-mycobacterial or cytotoxic activity”.

Consider `O=C(Cc1ccccc1)Nc1cnc2ccccc2c1` [Compound 36, 2-Phenyl-N-(quinolin-3-yl)acetamide], for which the “anti-mycobacterial activity (in words)” value in data set [1] is listed as “significantly weakened anti-mycobacterial activity”. Also, the MIC in data set [1] (168 h, read-out: MIC (Aerobic)) worked out at 100 µM (≈ 26.2 µg/mL); in data set [1] (336 h, read-out: MIC (Hypoxic)), 100 µM (≈ 26.2 µg/mL). In data set [2], this compound gave a concentration for half-maximal inhibition (IC50) at 72 h of 4.9 µM.

Take `CN(CCc1ccccc1)c1cnc2ccccc2c1` [Compound 37, N-Methyl-N-phenethylquinolin-3-amine]: the “anti-mycobacterial activity (in words)” value in data set [1] is “antibacterial activity comparable to that of 6”. The MIC in data set [1] (168 h, read-out: MIC (Aerobic)) came to 6.25 µM (≈ 1.64 µg/mL); in data set [1] (336 h, read-out: MIC (Hypoxic)), 50 µM (≈ 13.1 µg/mL). The same compound came in with an IC50 at 72 h in data set [2] of 16 µM.

As for `C#CCN(CCc1ccccc1)c1cnc2ccccc2c1` [Compound 38, N-Phenethyl-N-(prop-2-yn-1-yl)quinolin-3-amine], the “anti-mycobacterial activity (in words)” value in data set [1] is listed as “significantly weakened anti-mycobacterial activity”. The MIC in data set [1] (168 h, read-out: MIC (Aerobic)) was found to be 100 µM (≈ 28.6 µg/mL); in data set [1] (336 h, read-out: MIC (Hypoxic)), 100 µM (≈ 28.6 µg/mL). In data set [2], this compound returned an IC50 at 72 h of 18 µM.

Regarding `c1ccc(CCOc2cnc3ccccc3c2)cc1` [Compound 40, 3-Phenethoxyquinoline], the “anti-mycobacterial activity (in words)” value in data set [1] was “significantly weakened anti-mycobacterial activity”. Besides, the MIC was determined as 50 µM (≈ 12.5 µg/mL) in data set [1] (168 h, read-out: MIC (Aerobic)) and 100 µM (≈ 24.9 µg/mL) in data set [1] (336 h, read-out: MIC (Hypoxic)). This compound also registered an IC50 at 72 h in data set [2] of 11 µM.

Consider `c1ccc2ncc(NCCC3CCCCC3)cc2c1` [Compound 42, N-(2-Cyclohexylethyl)quinolin-3-amine], for which the MIC came out at 50 µM (≈ 12.7 µg/mL) in data set [1] (168 h, read-out: MIC (Aerobic)) and 100 µM (≈ 25.4 µg/mL) in data set [1] (336 h, read-out: MIC (Hypoxic)). In data set [2], the concentration for half-maximal inhibition (IC50) at 72 h was 15 µM.

As for `c1ccc2ncc(NCCc3cccc4ccccc34)cc2c1` [Compound 43, N-(2-(Naphthalen-1-yl)ethyl)quinolin-3-amine], in data set [1], the “anti-mycobacterial activity (in words)” value is recorded as “markedly reduced anti-mycobacterial activity”. Moreover, the MIC in data set [1] (168 h, read-out: MIC (Aerobic)) is 100 µM (≈ 29.8 µg/mL); in data set [1] (336 h, read-out: MIC (Hypoxic)), greater than 200 µM. Besides, the 50% inhibitory concentration (IC50) at 72 h in data set [2] was determined as 11 µM.

On to `c1ccc2cc(CCNc3cnc4ccccc4c3)ccc2c1` [Compound 44, N-(2-(Naphthalen-2-yl)ethyl)quinolin-3-amine], for which the “anti-mycobacterial activity (in words)” value in data set [1] was “good anti-mycobacterial activity under aerobic and hypoxic conditions”. The MIC was 6.25 µM (≈ 1.86 µg/mL) in data set [1] (168 h, read-out: MIC (Aerobic)) and 12.5 µM (≈ 3.73 µg/mL) in data set [1] (336 h, read-out: MIC (Hypoxic)). This compound also came in with an IC50 at 72 h in data set [2] of 13 µM.

`c1csc(CCNc2cnc3ccccc3c2)c1` [Compound 45, N-(2-(Thiophen-2-yl)ethyl)quinolin-3-amine]: the MIC in data set [1] (168 h, read-out: MIC (Aerobic)) is 6.25 µM (≈ 1.59 µg/mL); in data set [1] (336 h, read-out: MIC (Hypoxic)), 50 µM (≈ 12.7 µg/mL). Besides, the IC50 at 72 h in data set [2] was found to be 14 µM.

Turning to `C#CCCNc1cnc2ccccc2c1` [Compound 46, N-(But-3-yn-1-yl)quinolin-3-amine], the MIC was greater than 200 µM in data set [1] (168 h, read-out: MIC (Aerobic)) and greater than 200 µM in data set [1] (336 h, read-out: MIC (Hypoxic)). Also, the midpoint of inhibition in data set [2], the IC50 at 72 h, lay at 53 µM.

For the compound `NNC(=O)c1ccncc1` [isoniazid, reference compound], the MIC in data set [1] (168 h, read-out: MIC (Aerobic)) was 0.39 µM (≈ 0.0535 µg/mL); in data set [1] (336 h, read-out: MIC (Hypoxic)) it was greater than 200 µM.
